Measured values taken from patent publication US5674697A, “High sensitivity immunoassay for polychlorinated dibenzo-p-dioxins and polychlorinated dibenzofurans” (priority 1995, dated 1997).
Read-outs that look alike come from different tables or passages of the source.

Legend:
[1] = cited from earlier work; for TEF* (toxic equivalency factor): Table II, congeners of the TEF Mixture native standard
DD-3 antibody = experiment: Direct competitive EIA with immobilized DD-3 monoclonal antibody and competitor-HRP conjugate; type: binding, mouse; conditions: for Assay sensitivity compared with the Hapten I enzyme conjugate based assay: analyte 2,3,7,8-TCDD; for Assay sensitivity compared with the Hapten I enzyme conjugate based assay / I50 (pg/well) / I85 (mdl, pg/well): DD-3 antibody; for I50 (pg/well) / I85 (mdl, pg/well): analyte 2,3,7,8-tetrachlorodibenzo-p-dioxin, listed competitor as HRP conjugate
Description: Antibodies can be readily prepared by standard methods. […] M. Vanderlaan, et al., U.S. Pat. No. 4,798,807 (1989).
The competitors A-F (FIG. 2) and Hapten I (FIG. 1) were conjugated to the enzyme, amino modified Horseradish Peroxidase (HRP) (horseradish peroxidase commercially available from Sigma Chemical Co. (No. P-6782), St. Louis, Mo.; amino modified per R. Hsiao and H. Royer, Archives Biochem. Biophys., 198, 379-385 (1979) to give 6-24 free amines), using the carbodiimide mediated carboxyl activation procedure described in Example 7. Hapten and competitor load were determined by UV/Vis spectroscopy, also as described in Example 7.
The direct EIA (immobilized antibody and competitor enzyme conjugate) was performed as follows. Monoclonal antibody supernatant stored at -20° C. was diluted 1,000-40,000 fold with PBS which contained 0.1% Tween-20. This solution was dispensed (500 ul) into donkey anti-mouse second antibody coated tubes (DAM Tubes commercially available from Millipore Corp., Bedford, Mass.) and incubated at room temperature overnight. The antisera solution was decanted from the tubes and the tubes washed 3 times with distilled water. Non-specific sites in the tubes were blocked with 600 ul of BSA blocking buffer (EIA Blocking Buffer commercially available from Millipore Corp., Bedford, Mass.) and incubated for 2 hours at room temperature or overnight at 4° C. The blocking buffer was decanted and the tubes allowed to dry under ambient room conditions for at least 2 hours. The assay was performed by adding 500 ul of assay diluent (1% methanol (v/v) and 0.005% Tween-20 (w/v) in distilled water) to the required number of tubes followed by 10 ul of a methanol solution of the analyte (PCDD or PCDF). After a 5 minute incubation at room temperature, the solution was decanted and the tubes rinsed 3-4 times with tap water. The horseradish peroxidase competitor or Hapten I conjugates were diluted 1,000-60,000 fold from 2-5 mg/ml stock solutions in PBS with conjugate diluent (Enzyme Conjugate Diluent commercially available from Millipore Corp., Bedford, Mass.). The enzyme conjugate (200 ul) was added to the tubes followed by a 5 minute incubation at room temperature. The conjugate solution was decanted and the tubes rinsed 3-4 times with tap water. Enzyme substrate solution (500 ul, KPL No. 50-76-04 commercially available from KPL Laboratories, Gaithersburg, Md.) was added and the tubes were incubated at room temperature for 5-15 minutes. The enzyme reaction was stopped with the addition of 500 ul of 1N HCl. The OD of the solution was determined at 450 nm. The data was plotted using Log (Congener Concentration) versus B/Bo (B=Sample Absorbance, Bo=Sample Blank Absorbance).

[2] = most toxic PCDD/PCDF congeners, reference 2,3,7,8-TCDD = 1.0, S. Safe 1990
[3] = analyte 2,3,7,8-tetrachlorodibenzofuran, DD-3 and Competitor F
[4] = toxicity relative to 2,3,7,8-TCDD

SMILES | TEF* (toxic equivalency factor) [1] | TEF [1, 2] | other results
Clc1c(Cl)c(Cl)c2c(c1Cl)Oc1c(Cl)c(Cl)c(Cl)c(Cl)c1O2 [OCDD] | 0.001 | 0.001 | –
O=C(O)CCCOc1ccc(Cl)cc1Cl [Competitor C] | – | – | Assay sensitivity compared with the Hapten I enzyme conjugate based assay (DD-3 antibody): significantly more sensitive; I50 (pg/well) (DD-3 antibody): 230 pg/well; I85 (mdl, pg/well) (DD-3 antibody): 13 pg/well
Clc1cc2oc3c(Cl)c(Cl)c(Cl)c(Cl)c3c2c(Cl)c1Cl [1,2,3,4,7,8,9-HpCDF] | 0.01 | 0.01 | –
O=C(O)CCCSc1cc(Cl)ccc1Cl [Competitor E] | – | – | Assay sensitivity compared with the Hapten I enzyme conjugate based assay (DD-3 antibody): significantly more sensitive; I50 (pg/well) (DD-3 antibody): 380 pg/well; I85 (mdl, pg/well) (DD-3 antibody): 15 pg/well
Clc1cc2oc3cc(Cl)c(Cl)c(Cl)c3c2c(Cl)c1Cl [1,2,3,7,8,9-HxCDF] | 0.1 | 0.1 | –
Clc1cc2oc3cc(Cl)c(Cl)cc3c2cc1Cl [2,3,7,8-TCDF, 2,3,7,8-tetrachlorodibenzofuran] | 0.1 | 0.1 | Factor more sensitive than DD-3 and Hapten I assay system (DD-3 antibody; analyte 2,3,7,8-tetrachlorodibenzofuran, Competitor F versus literature Hapten I assay (Stanker 1987)): ~10; I50 (DD-3 antibody; [3]): 800 pg/well; I85 (mdl) (DD-3 antibody; [3]): 80 pg/well
O=C(O)CCCC(=O)c1ccc(Cl)c(Cl)c1 [Competitor F] | – | – | Assay sensitivity compared with the Hapten I enzyme conjugate based assay (DD-3 antibody): significantly more sensitive; I50 (pg/well) (DD-3 antibody): 230 pg/well; I85 (mdl, pg/well) (DD-3 antibody): 13 pg/well
Clc1cc2c(oc3cc(Cl)c(Cl)c(Cl)c32)c(Cl)c1Cl [1,2,3,6,7,8-HxCDF] | 0.1 | 0.1 | –
Clc1cc2oc3c(Cl)c(Cl)c(Cl)c(Cl)c3c2cc1Cl [1,2,3,4,7,8-HxCDF] | 0.1 | 0.1 | –
Clc1c(Cl)c(Cl)c2c(oc3c(Cl)c(Cl)c(Cl)c(Cl)c32)c1Cl [OCDF] | 0.001 | 0.001 | –
O=C(O)CCCCc1cc(Cl)ccc1Cl [Competitor A, 5-(2,5-dichlorophenyl)pentanoic acid] | – | – | Assay sensitivity compared with the Hapten I enzyme conjugate based assay (DD-3 antibody): significantly more sensitive; I50 (pg/well) (DD-3 antibody): 1,000 pg/well; I85 (mdl, pg/well) (DD-3 antibody): 25 pg/well
O=C(O)CCc1ccc(Cl)c(Cl)c1 [Competitor B] | – | – | Assay sensitivity compared with the Hapten I enzyme conjugate based assay (DD-3 antibody): significantly more sensitive; I50 (pg/well) (DD-3 antibody): 350 pg/well; I85 (mdl, pg/well) (DD-3 antibody): 20 pg/well
Clc1cc2c(cc1Cl)Oc1c(cc(Cl)c(Cl)c1Cl)O2 [1,2,3,7,8-PeCDD] | 0.5 | 0.5 | –
Clc1cc2c(oc3c(Cl)c(Cl)c(Cl)cc32)c(Cl)c1Cl [2,3,4,6,7,8-HxCDF] | 0.1 | 0.1 | –
Clc1cc(Cl)c2c(c1Cl)Oc1c(Cl)c(Cl)c(Cl)c(Cl)c1O2 [1,2,3,4,6,7,9-HpCDD] | 0.01 | 0.01 | –
Clc1cc2c(c(Cl)c1Cl)Oc1cc(Cl)c(Cl)c(Cl)c1O2 [1,2,3,6,7,8-HxCDD] | 0.1 | 0.1 | –
Clc1cc2c(oc3c(Cl)c(Cl)c(Cl)c(Cl)c32)c(Cl)c1Cl [1,2,3,4,6,7,8-HpCDF] | 0.01 | 0.01 | –
Clc1cc2c(c(Cl)c1Cl)Oc1c(cc(Cl)c(Cl)c1Cl)O2 [1,2,3,7,8,9-HxCDD] | 0.1 | 0.1 | –
Clc1cc2c(c(Cl)c1Cl)Oc1c(Cl)c(Cl)c(Cl)c(Cl)c1O2 [1,2,3,4,6,7,8-heptachlorodibenzo-p-dioxin] | – | 0.01 | TEF [1, 4]: 0.01
Clc1cc2oc3cc(Cl)c(Cl)c(Cl)c3c2cc1Cl [1,2,3,7,8-PeCDF] | 0.05 | 0.05 | –
Clc1cc2c(cc1Cl)Oc1c(Cl)c(Cl)c(Cl)c(Cl)c1O2 [1,2,3,4,7,8-HxCDD] | 0.1 | 0.1 | –
Clc1cc2c(cc1Cl)Oc1cc(Cl)c(Cl)cc1O2 [2,3,7,8-TCDD, 2,3,7,8-tetrachlorodibenzo-p-dioxin] | 1 | 1.0 | TEF [1, 4]: 1.0
O=C(O)CCCOc1ccc(Cl)c(Cl)c1 [Competitor D] | – | – | Assay sensitivity compared with the Hapten I enzyme conjugate based assay (DD-3 antibody): significantly more sensitive; I50 (pg/well) (DD-3 antibody): 380 pg/well; I85 (mdl, pg/well) (DD-3 antibody): 15 pg/well
